Results as given in patent US8664267B2 (Academic Pharmaceuticals Incorporated, priority 2007, dated 2014).

Key:
[1] = system: Coronary Occlusion (Rat)
[2] = administered intravenously; cited from earlier work
[3] = system: dog; conditions: Torres-Arrault et al. 1984, cited from earlier work

Compound: CCCCc1oc2ccccc2c1C(=O)c1cc(I)c(OCCN(CC)CC)c(I)c1 [amiodarone, 2-n-butyl-3-(3,5-diiodo-4-β-N-diethylaminoethoxy-benzoyl)benzofuran]
- dose-dependent suppression of arrhythmias compared with the saline control group [1]: significantly different
- onset of action and hemodynamic and electrophysiological effect [2]: rapid onset of action causing profound hemodynamic and electrophysiological effect

Compound: CCCCCCCC/C=C\CCCCCCCC(=O)OCCOCC(OCCO)C1OCC(OCCO)C1OCCO (stereo not shown) [Tween-80, polysorbate 80]
- cardiac depressant effect [3]: potent cardiac depressant
- hypotension ([3]; dog): causes hypotension
